# Test results from ChEMBL document CHEMBL1697723, “A predictive ligand-based Bayesian model for human drug-induced liver injury” (Drug Metab Dispos, 2010).
# Residues, ends and D or L forms follow the SMILES beside them.
# Tested on: Hepatotoxicity
# Assay: Human drug-induced liver injury (DILI) modelling dataset from Ekins et al
Compound,Hepatotoxicity,Hepatotoxicity (Liver)
CC1(C)S[C@@H]2[C@H](NC(=O)[C@H](N)c3ccc(O)cc3)C(=O)N2[C@H]1C(=O)O [AMOXICILLIN],DILI negative (test set),
C[C@@H]1[C@H](O)[C@@H](C)/C=C/C=C/C=C/C=C/C=C/C=C/C=C/[C@H](O[C@@H]2O[C@H](C)[C@@H](O)[C@H](N)[C@@H]2O)C[C@@H]2O[C@](O)(C[C@@H](O)C[C@@H](O)[C@H](O)CC[C@@H](O)C[C@@H](O)CC(=O)O[C@H]1C)C[C@H](O)[C@H]2C(=O)O [AMPHOTERICIN B],DILI negative (test set),
CC1(C)S[C@@H]2[C@H](NC(=O)[C@H](N)c3ccccc3)C(=O)N2[C@H]1C(=O)[O-].[Na+] [AMPICILLIN SODIUM],DILI negative (test set),
COc1cc(NS(C)(=O)=O)ccc1Nc1c2ccccc2nc2ccccc12.Cl [AMSACRINE HYDROCHLORIDE],DILI positive (training set),
CCOC(=O)C1(c2ccccc2)CCN(CCc2ccc(N)cc2)CC1.Cl [ANILERIDINE HYDROCHLORIDE],DILI negative (test set),
N=C(N)NCCC[C@H](N)C(=O)O [ARGININE],DILI negative (training set),
O=[As][As+](=O)[O-] (configuration not stated) [ARSENIC TRIOXIDE],DILI positive (test set),
O=C1O[C@H]([C@@H](O)CO)C(O)=C1O [ASCORBIC ACID],DILI negative (training set),
CC(=O)Oc1ccccc1C(=O)O [ASPIRIN],DILI negative (training set),
COc1ccc(CCN2CCC(Nc3nc4ccccc4n3Cc3ccc(F)cc3)CC2)cc1 [ASTEMIZOLE],DILI negative (training set),
CC(C)NCC(O)COc1ccc(CC(N)=O)cc1 (configuration not stated) [ATENOLOL],,DILI negative (training set)
CNCC[C@@H](Oc1ccccc1C)c1ccccc1 [ATOMOXETINE],DILI positive (test set),
C=C1[C@@H]2CCC3[C@@](CC[C@@H]4[C@H](C(=O)O)C[C@@H](O[C@@H]5O[C@H](CO)[C@@H](OS(=O)(=O)[O-])[C@H](OS(=O)(=O)[O-])[C@H]5OC(=O)CC(C)C)C[C@@]34C)(C2)[C@@H]1O.[K+].[K+] (some centres not stated) [ATRACTYLOSIDE],DILI positive (training set),
Nc1ncn([C@@H]2O[C@H](CO)[C@@H](O)[C@H]2O)c(=O)n1 [AZACITIDINE],,DILI positive (test set)
[N-]=[N+]=CC(=O)OC[C@H](N)C(=O)O [AZASERINE],DILI positive (training set),
CN1CCC(=C2c3ccccc3CCc3cccnc32)CC1.O=C(O)/C=C\C(=O)O.O=C(O)/C=C\C(=O)O [AZATADINE MALEATE],DILI positive (test set),
Cn1cnc([N+](=O)[O-])c1Sc1ncnc2nc[nH]c12 [AZATHIOPRINE],,DILI positive (training set)
CC[C@H]1OC(=O)[C@H](C)[C@@H](O[C@H]2C[C@@](C)(OC)[C@@H](O)[C@H](C)O2)[C@H](C)[C@@H](O[C@@H]2O[C@H](C)C[C@H](N(C)C)[C@H]2O)[C@](C)(O)C[C@@H](C)CN(C)[C@H](C)[C@@H](O)[C@]1(C)O [AZITHROMYCIN],DILI negative (test set),
CC1(C)S[C@@H]2[C@H](NC(=O)[C@H](NC(=O)N3CCNC3=O)c3ccccc3)C(=O)N2[C@H]1C(=O)[O-].[Na+] [AZLOCILLIN SODIUM],DILI negative (test set),
C[C@H]1[C@H](NC(=O)/C(=N\OC(C)(C)C(=O)O)c2csc(N)n2)C(=O)N1S(=O)(=O)O [AZTREONAM],DILI negative (training set),
"CC[C@H](C)[C@H](N)C1=N[C@H](C(=O)N[C@@H](CC(C)C)C(=O)N[C@H](CCC(=O)O)C(=O)N[C@H](C(=O)N[C@H]2CCCCNC(=O)[C@H](CC(N)=O)NC(=O)[C@@H](CC(=O)O)NC(=O)[C@H](Cc3cnc[nH]3)NC(=O)[C@@H](Cc3ccccc3)NC(=O)[C@H]([C@@H](C)CC)NC(=O)[C@@H](CCCN)NC2=O)[C@@H](C)CC)CS1 [BACITRACIN] (HELM PEPTIDE1{[CC[C@H](C)[C@H](N)C1=N[C@H](C(=O)[*:2])CS1].L.[dE].I.K.[NCCC[C@@H](N[*:1])C(=O)[*:2]].I.[dF].H.[dD].N}$PEPTIDE1,PEPTIDE1,5:R3-11:R2$$$V2.0)",DILI negative (training set),

Compound,Hepatotoxicity,Hepatotoxicity (Liver)
CN(C)C(=O)Oc1cc(OC(=O)N(C)C)cc(C(O)CNC(C)(C)C)c1 (configuration not stated) [BAMBUTEROL],DILI negative (training set),
CCC(=O)OCC(=O)[C@@]1(OC(=O)CC)[C@@H](C)C[C@H]2[C@@H]3CCC4=CC(=O)C=C[C@]4(C)[C@@]3(Cl)[C@@H](O)C[C@@]21C [BECLOMETHASONE DIPROPIONATE],DILI negative (training set),
CCOC(=O)[C@H](CCc1ccccc1)N[C@H]1CCc2ccccc2N(CC(=O)O)C1=O [BENAZEPRIL],DILI negative (training set),
CC(C(=O)O)c1ccc2oc(-c3ccc(Cl)cc3)nc2c1 (configuration not stated) [BENOXAPROFEN],DILI positive (test set),
CCc1oc2ccccc2c1C(=O)c1cc(Br)c(O)c(Br)c1 [BENZBROMARONE],DILI positive (training set),
CC(C)COCC(CN(Cc1ccccc1)c1ccccc1)N1CCCC1.Cl.O (configuration not stated) [BEPRIDIL HYDROCHLORIDE],DILI positive (training set),
Cl[C@H]1[C@H](Cl)[C@@H](Cl)[C@H](Cl)[C@@H](Cl)[C@@H]1Cl [BETA-HEXACHLOROCYCLOHEXANE],,DILI positive (training set)
CNCCc1ccccn1.Cl.Cl [BETAHISTINE HYDROCHLORIDE],DILI positive (training set),
C[N+](C)(C)CC(=O)O.[Cl-] [BETAINE HYDROCHLORIDE],DILI negative (test set),
C[C@H]1C[C@H]2[C@@H]3CCC4=CC(=O)C=C[C@]4(C)[C@@]3(F)[C@@H](O)C[C@]2(C)[C@@]1(O)C(=O)CO [BETAMETHASONE],DILI negative (training set),
CC(C)(Oc1ccc(CCNC(=O)c2ccc(Cl)cc2)cc1)C(=O)O [BEZAFIBRATE],DILI negative (training set),
CC(O)(CS(=O)(=O)c1ccc(F)cc1)C(=O)Nc1ccc(C#N)c(C(F)(F)F)c1 (configuration not stated) [BICALUTAMIDE],DILI positive (training set),
O=C(O)CCCC[C@@H]1SC[C@@H]2NC(=O)N[C@@H]21 [BIOTIN],DILI negative (training set),
CCCC[C@@H](CC)COC(=O)c1ccccc1C(=O)OC[C@@H](CC)CCCC [BIS(2-ETHYLHEXYL)PHTHALATE],DILI positive (test set),
Oc1c(Cl)cc(Cl)cc1Sc1cc(Cl)cc(Cl)c1O [BITHIONOL],DILI positive (test set),
COc1ccccc1Oc1c(NS(=O)(=O)c2ccc(C(C)(C)C)cc2)nc(-c2ncccn2)nc1OCCO [BOSENTAN],DILI positive (test set),
Nc1c(CC(=O)O)cccc1C(=O)c1ccc(Br)cc1 [BROMFENAC],DILI positive (test set),
Brc1ccccc1 [BROMOBENZENE],DILI positive (test set),
NCCBr [BROMOETHANAMINE],DILI positive (test set),
CN(C)CCC(c1ccc(Br)cc1)c1ccccn1.O=C(O)/C=C\C(=O)O (configuration not stated) [BROMPHENIRAMINE MALEATE],DILI negative (training set),
CCCCNc1cc(C(=O)O)cc(S(N)(=O)=O)c1Oc1ccccc1 [BUMETANIDE],DILI positive (training set),

Compound,Hepatotoxicity,Hepatotoxicity (Liver)
CCCCN1CCCCC1C(=O)Nc1c(C)cccc1C (configuration not stated) [BUPIVACAINE],DILI negative (training set),
CC(NC(C)(C)C)C(=O)c1cccc(Cl)c1.Cl (configuration not stated) [BUPROPION HYDROCHLORIDE],DILI negative (training set),
O=C1CC2(CCCC2)CC(=O)N1CCCCN1CCN(c2ncccn2)CC1 [BUSPIRONE],DILI negative (test set),
CS(=O)(=O)OCCCCOS(C)(=O)=O [BUSULFAN],DILI positive (training set),
Clc1ccc(CCC(Cn2ccnc2)Sc2c(Cl)cccc2Cl)cc1.O=[N+]([O-])O (configuration not stated) [BUTOCONAZOLE NITRATE],DILI negative (test set),
Cc1cc(C(C)(C)C)c(O)c(C(C)(C)C)c1 [BUTYLATED HYDROXYTOLUENE],DILI positive (test set),
Cn1c(=O)c2c(ncn2C)n(C)c1=O [CAFFEINE],DILI negative (test set),
C=C1CC[C@H](O)C/C1=C/C=C1\CCC[C@]2(C)[C@@H]([C@H](C)CCCC(C)(C)O)CC[C@@H]12.O [CALCIFEDIOL],DILI positive (test set),
CC(C)(CO)[C@@H](O)C(=O)NCCC(=O)[O-].CC(C)(CO)[C@@H](O)C(=O)NCCC(=O)[O-].[Ca+2] [CALCIUM PANTOTHENATE],DILI negative (training set),
COc1cc(CNC(=O)CCCC/C=C/C(C)C)ccc1O [CAPSAICIN],DILI negative (test set),
C[C@H](CS)C(=O)N1CCC[C@H]1C(=O)O [CAPTOPRIL],DILI positive (training set),
NC(=O)N1c2ccccc2C=Cc2ccccc21 [CARBAMAZEPINE],DILI positive (test set),
COC(=O)Nc1nc2ccccc2[nH]1 [CARBENDAZIM],DILI positive (training set),
CC1(C)[C@@H](OC(=O)CCC(=O)[O-])CC[C@]2(C)[C@H]3C(=O)C=C4[C@@H]5C[C@@](C)(C(=O)[O-])CC[C@]5(C)CC[C@@]4(C)[C@]3(C)CC[C@@H]12.[Na+].[Na+] [CARBENOXOLONE SODIUM],DILI negative (training set),
C[C@@](Cc1ccc(O)c(O)c1)(NN)C(=O)O.O [CARBIDOPA],DILI negative (training set),
ClC(Cl)(Cl)Cl [CARBON TETRACHLORIDE],DILI positive (test set),
CC1=C(C(=O)O)N2C(=O)[C@@H](NC(=O)[C@H](N)c3ccc(O)cc3)[C@H]2SC1 [CEFADROXIL],DILI positive (test set),
Cn1nnnc1SCC1=C(C(=O)[O-])N2C(=O)[C@@H](NC(=O)[C@H](O)c3ccccc3)[C@H]2SC1.[Na+] [CEFAMANDOLE SODIUM],DILI positive (test set),
CCN1CCN(C(=O)N[C@@H](C(=O)N[C@@H]2C(=O)N3C(C(=O)O)=C(CSc4nnnn4C)CS[C@H]23)c2ccc(O)cc2)C(=O)C1=O.O.O [CEFOPERAZONE DIHYDRATE],DILI negative (training set),
CO[C@@]1(NC(=O)C2SC(=C(C(N)=O)C(=O)O)S2)C(=O)N2C(C(=O)O)=C(CSc3nnnn3C)CS[C@@H]21 (some centres not stated) [CEFOTETAN],DILI negative (test set),
